Results on ten molecules are retold here after patent US9255093B2, “Polycyclic HERG activators” (NOVARTIS AG, priority 2014, dated 2016).

SMILES strings stand for the structures. Marks after values point to notes of the source that are not given here.

In the first data set the target is T1, hERG (human ether-a-go-go-related gene) potassium channel (Homo sapiens, UniProt Q12809).
T1 sequence (Q12809 whole entry): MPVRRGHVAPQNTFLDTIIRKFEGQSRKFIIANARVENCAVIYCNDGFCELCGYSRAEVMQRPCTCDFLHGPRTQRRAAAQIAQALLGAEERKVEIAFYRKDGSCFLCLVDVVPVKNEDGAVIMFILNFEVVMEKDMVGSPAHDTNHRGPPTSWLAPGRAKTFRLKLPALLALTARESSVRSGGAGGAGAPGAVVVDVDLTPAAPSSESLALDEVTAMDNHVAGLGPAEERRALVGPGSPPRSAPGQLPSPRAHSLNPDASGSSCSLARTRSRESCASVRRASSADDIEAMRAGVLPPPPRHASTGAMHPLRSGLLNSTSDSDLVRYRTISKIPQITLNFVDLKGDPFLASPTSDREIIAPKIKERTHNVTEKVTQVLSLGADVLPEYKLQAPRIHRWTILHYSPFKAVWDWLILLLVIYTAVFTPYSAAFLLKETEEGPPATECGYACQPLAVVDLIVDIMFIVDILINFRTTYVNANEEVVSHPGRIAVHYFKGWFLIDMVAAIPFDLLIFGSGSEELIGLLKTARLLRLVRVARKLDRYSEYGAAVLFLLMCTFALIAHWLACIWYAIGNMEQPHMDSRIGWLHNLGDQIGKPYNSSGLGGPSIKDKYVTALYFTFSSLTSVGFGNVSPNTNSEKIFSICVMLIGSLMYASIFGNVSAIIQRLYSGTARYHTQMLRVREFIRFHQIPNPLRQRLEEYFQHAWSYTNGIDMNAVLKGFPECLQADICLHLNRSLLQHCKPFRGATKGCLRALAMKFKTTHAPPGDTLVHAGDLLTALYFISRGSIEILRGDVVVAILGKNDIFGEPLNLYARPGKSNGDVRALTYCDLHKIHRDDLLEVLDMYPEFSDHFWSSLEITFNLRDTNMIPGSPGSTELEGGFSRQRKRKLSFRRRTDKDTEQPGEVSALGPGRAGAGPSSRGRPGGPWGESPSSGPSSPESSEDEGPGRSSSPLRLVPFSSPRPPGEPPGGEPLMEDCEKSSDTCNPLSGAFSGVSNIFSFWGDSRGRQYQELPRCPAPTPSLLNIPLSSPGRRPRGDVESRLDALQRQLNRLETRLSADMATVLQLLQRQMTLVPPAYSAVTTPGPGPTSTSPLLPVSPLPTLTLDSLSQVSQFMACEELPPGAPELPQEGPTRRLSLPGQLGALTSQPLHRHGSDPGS
Test: not given
Details: not given
As for `O=c1cc(C(F)(F)F)c2ccc(NCc3ccc4cc(-c5nn[nH]n5)oc4c3)cc2o1` [Example 222], the “% change@TL7@10 uM” value was 41%.

The target of another data set is T1, hERG (human ether-a-go-go-related gene) potassium channel. The data set can be described thus: QPatch automated patch-clamp hERG activator 4-concentration EC50 assay. Particulars: increase of hERG tail current amplitude at 7 second (TL7); 3.3 uM (footnote *); hERG stably expressed in CHO cells. On the technique in general: In patch-clamp work, channel activity is measured electrically.
Description: A patch-clamp assay on the QPatch© automated patch clamp system was employed to assesses whether compounds functionally enhance the cardiac delayed rectifier hERG (human ether-a-go-go-related gene) potassium channel. The assay measures electric the current passing through hERG channels that are heterologously expressed in a stable Chinese hamster ovary (CHO) cell line. Channels are opened by a hERG-specific voltage protocol and the compound effect is directly characterized by the activation of the hERG current. EC50 values are obtained from fitting 4-concentration dose response curves (1.1, 3.3, 10 & 30 uM) in triplicates at 4 different sections of the voltage protocol (steady state current amplitude at +10 mV, at +30 mV, peak tail current amplitude and tail current amplitude at 7 second).
With `FC(F)(F)Oc1ccc(NCc2ccc3c(-c4nn[nH]n4)coc3c2)cc1Br` [Example 233], the “% change@TL7 (*@3.3 uM)” value is recorded as 202* %.

Staying with this data set, now noted: increase of hERG tail current amplitude at 7 second (TL7); 10 uM; hERG stably expressed in CHO cells.
As to `O=C(O)c1cc2cc(F)c(CNc3ccc(OCC(F)(F)F)c(Cl)c3)cc2o1` [Example 225], the “% change@TL7@10 uM” value stood at 138%.
`O=C(O)c1cc2cc(F)c(CNc3ccc(OC(F)(F)F)c(Cl)c3)cc2o1` [Example 226]: the “% change@TL7@10 uM” value is given as 182%.
The same measure, in the same setting: under `O=C(O)c1cc2cc(F)c(CNc3ccc(OC(F)(F)F)c(Br)c3)cc2o1` [Example 227] stands 188%; under `O=C(O)c1cc2cc(F)c(CNc3ccc(SC(F)(F)F)c(Cl)c3)cc2o1` [Example 228], 140%; under `O=C(O)c1cc2cc(F)c(CNc3cc(C(F)(F)F)c(Br)c(C(F)(F)F)c3)cc2o1` [Example 229], 424%.
In the case of `O=C(O)c1cc2cc(F)c(CNc3ccc(OC(F)F)c(C(F)(F)F)c3)cc2o1` [Example 230], the “% change@TL7@10 uM” value is 244%.
Regarding `O=C(O)c1cc2cc(F)c(CNc3ccc(OCC(F)(F)F)c(C(F)(F)F)c3)cc2o1` [Example 231], the “% change@TL7@10 uM” value was 239%.
Consider `O=C(O)c1cc2cc(F)c(CNc3cc(Cl)c(Cl)c(Cl)c3)cc2o1` [Example 232], for which the “% change@TL7@10 uM” value stood at 247%.
